Experimental data as given in patent publication US9309179B2 (FAB PHARMA S.A.S., priority 2006, dated 2016).
Values after ≈ are worked out from the molar mass of the structure shown. Like-named read-outs stand apart in the source and are kept apart here.

Experiments:
[1] = molecular target: T1, recombinant E. coli FabI enzyme (Escherichia coli, UniProt P0AEK4); assay: FabI inhibition, fluorescence-based NADH assay; assay type: biochemical
T1 construct: 6-His (C); made in house; host or cells: prokaryotic expression vector
Description: Compound inhibitory activity of FabI enzyme is measured in vitro by the IC50 determination using a fluorescent based assay.
The protein FabI from E. coli is prepared and purified using standard methods for recombinant protein expression after cloning of the gene in a prokaryotic expression vector.
The biochemical activity of the FabI enzyme is assessed using the following method.
The assay buffer “AB” contains 50 mM Hepes pH7.5, 100 μM Dithiothreitol, 0.006% Triton-X100. The following components are added in a black polystyrene Costar plate up to a final volume of 55 μL: 1.5 μL DMSO, or inhibitor dissolved in DMSO and 53.5 μL of a FabI/NADH/NAD+ mixture in AB. After 60 min of pre-incubation at room temperature, the reaction is started by addition of 5 μL of Crotonoyl-CoA to a final volume of 60 μL. This reaction mixture is then composed of 40 nM FabI (produced in house from E. coli, C-terminal 6-His tagged), 20 μM NADH (Biochemika), 10 μM NAD+ (Biochemika), 50 μM Crotonoyl-CoA (Biochemika) and compound at defined concentration. Fluorescence intensity of NADH (lex=360 nm, lem=520 nm) is measured immediately after Crotonoyl-CoA addition, and 2 hours later by a Fluostar Optima (BMG). Enzyme activity is proportional to the signal decrease from which inhibition percentages are derived. For IC50 determinations, the inhibitor is tested at 6 to 10 different concentrations, and the related inhibitions are fitted to a classical langmuir equilibrium model using XLFIT (IDBS).
In Vitro Inhibition of Recombinant E. coli FabI Enzyme by Selected Compounds of Formula (I).

E. coli CIP 76.24 = assay: MIC, broth microdilution; assay type: cell-based; conditions: Escherichia coli, CIP76; broth microdilution, 37° C., 20 h; read-out: MIC E. coli CIP 76.24
Description: (§1) The compounds of the present invention are useful antibacterial agents having a selective spectrum of activity in vitro against standard bacterial strains which are used to screen for activity against pathogenic bacteria. […] The activity is presented as Minimum Inhibitory Concentration (MIC) expressed in μg/ml.
(§2) Whole-cell antimicrobial activity was determined by broth microdilution method in microtiterplates. The compound was tested in serial 4-fold dilutions ranging from 0.06 to 64 mcg/mL. Test organisms were selected from the following laboratory strains: Staphylococcus aureus CIP 76.25, Staphylococcus aureus BAA39 MDR, Staphylococcus aureus NEM 14157 PeniR, Staphylococcus aureus CIP 54.146, Escherichia coli CIP 76.24. Bacteria were tested in Tryptic Soy (TS) or Mueller Hinton (MH) broth using an inoculum of 10^4 to 10^6 UFC/mL incubated at 37° C. for 20 h.
(§3) The minimum inhibitory concentration (MIC) was determined as the lowest concentration of compound at which no visible bacteria growth is observed (90% inhibition of absorbance of at […].)

S. aureus NEM14157 = assay: MIC, broth microdilution; assay type: cell-based; conditions: Staphylococcus aureus, NEM14157; broth microdilution, 37° C., 20 h; read-out: MIC S. aureus NEM14157
Description: as §1, §2, §3

S. aureus CIP 76.25 = assay: MIC, broth microdilution; assay type: cell-based; conditions: Staphylococcus aureus, CIP76; broth microdilution, 37° C., 20 h; read-out: MIC S. aureus CIP 76.25
Description: as §1, §2, §3

S. aureus BAA39MDR = assay: MIC, broth microdilution; assay type: cell-based; conditions: Staphylococcus aureus, broth microdilution, 37° C., 20 h, read-out: MIC S. aureus BAA39MDR
Description: as §1, §2, §3

S. aureus USA300 MRSA* = assay: MIC against resistant strains of S. aureus; assay type: cell-based; conditions: Staphylococcus aureus, read-out: MIC S. aureus USA300 MRSA*
S. aureus MRSA* = assay: MIC against resistant strains of S. aureus; assay type: cell-based; conditions: Staphylococcus aureus, read-out: MIC S. aureus MRSA*
Description: as §2, §3
(§4) In Vitro Activities Against Resistant Stains of S. aureus

S. aureus 2012 VISA = assay: MIC against resistant strains of S. aureus; assay type: cell-based; conditions: Staphylococcus aureus, read-out: MIC S. aureus 2012 VISA
Description: as §2, §3, §4

S. aureus 1651 LRSA* = assay: MIC against resistant strains of S. aureus; assay type: cell-based; conditions: Staphylococcus aureus, read-out: MIC S. aureus 1651 LRSA*
Description: as §2, §3, §4

S. aureus 2018 VISA* = assay: MIC against resistant strains of S. aureus; assay type: cell-based; conditions: Staphylococcus aureus, read-out: MIC S. aureus 2018 VISA*
Description: as §2, §3, §4

S. aureus 1652 LRSA = assay: MIC against resistant strains of S. aureus; assay type: cell-based; conditions: Staphylococcus aureus, read-out: MIC S. aureus 1652 LRSA
Description: as §2, §3, §4

[2] = Methicillin Resistant S. aureus

T1 sequence (P0AEK4 whole entry): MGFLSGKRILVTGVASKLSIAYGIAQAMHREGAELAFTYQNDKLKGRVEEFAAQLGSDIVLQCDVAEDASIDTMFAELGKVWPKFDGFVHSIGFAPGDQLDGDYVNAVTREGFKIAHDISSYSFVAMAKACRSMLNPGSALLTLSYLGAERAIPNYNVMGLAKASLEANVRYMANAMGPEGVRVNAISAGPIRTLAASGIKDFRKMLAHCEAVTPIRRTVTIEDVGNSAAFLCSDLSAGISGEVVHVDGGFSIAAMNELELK

SMILES	IC50 [1]	MIC (E. coli CIP 76.24)	MIC (S. aureus NEM14157)	MIC (S. aureus CIP 76.25)	MIC (S. aureus BAA39MDR)	MIC (S. aureus USA300 MRSA*; [2])	MIC (S. aureus MRSA*; [2])	MIC (S. aureus 2012 VISA; VISA strain)	MIC (S. aureus 1651 LRSA*; Linezolid resistant S. aureus)	MIC (S. aureus 2018 VISA*; VISA strain)	MIC (S. aureus 1652 LRSA; Linezolid resistant S. aureus)	MIC (S. aureus USA300 MRSA*)	MIC (S. aureus MRSA*)	MIC (S. aureus 2012 VISA; VISA)	MIC (S. aureus 1651 LRSA*)	MIC (S. aureus 2018 VISA*; VISA)	MIC (S. aureus 1652 LRSA)
CCc1ccc(Oc2cccnc2N)c(O)c1 [Example 21, 2-[(2-aminopyridin-3-yl)oxy]-5-ethylphenol]	0.069 µM	0.25 µg/mL (≈ 1.09 µM)	0.25 µg/mL (≈ 1.09 µM)	0.25 µg/mL (≈ 1.09 µM)	0.25 µg/mL (≈ 1.09 µM)	0.5 µg/mL (≈ 2.17 µM)	0.12 µg/mL (≈ 0.521 µM)	0.12 µg/mL (≈ 0.521 µM)	0.12 µg/mL (≈ 0.521 µM)	0.25 µg/mL (≈ 1.09 µM)	0.5 µg/mL (≈ 2.17 µM)						
CCc1ccc(Oc2ccc(NCCCO)cc2F)c(O)c1 [Example 48, 5-Ethyl-2-[2-fluoro-4-(3-hydroxy-propylamino)-phenoxy]-phenol]		4 µg/mL (≈ 13.1 µM)		0.062 µg/mL (≈ 0.203 µM)		0.5 µg/mL (≈ 1.64 µM)	0.06 µg/mL (≈ 0.196 µM)	0.12 µg/mL (≈ 0.393 µM)	0.12 µg/mL (≈ 0.393 µM)	0.25 µg/mL (≈ 0.819 µM)	0.5 µg/mL (≈ 1.64 µM)						
CCc1ccc(Oc2ccc(S(C)(=O)=O)cc2F)c(O)c1 [Example 64, 5-ethyl-2-[2-fluoro-4-(methylsulfonyl)phenoxy]phenol]	0.13 µM	1 µg/mL (≈ 3.22 µM)	0.062 µg/mL (≈ 0.2 µM)	0.25 µg/mL (≈ 0.806 µM)	0.062 µg/mL (≈ 0.2 µM)												
CCCNS(=O)(=O)c1ccc(Oc2ccc(CC)cc2O)c(F)c1 [Example 71, 4-(4-ethyl-2-hydroxyphenoxy)-3-fluoro-N-propyl benzenesulfonamide]	0.33 µM	4 µg/mL (≈ 11.3 µM)	0.062 µg/mL (≈ 0.175 µM)	< 0.062 µg/mL	0.25 µg/mL (≈ 0.707 µM)												
CCc1cc(O)c(Oc2cccnc2N)cc1F [Example 84, 2-(2-aminopyridin-3yloxy)-5-ethyl-4-fluorophenol]	0.1 µM	0.25 µg/mL (≈ 1.01 µM)	0.25 µg/mL (≈ 1.01 µM)	0.25 µg/mL (≈ 1.01 µM)	0.25 µg/mL (≈ 1.01 µM)												
CCc1cc(O)c(Oc2cccnc2F)cc1F [Example 87, 5-Ethyl-4-fluoro-2-(2-fluoropyridin-3yloxy)phenol]	0.031 µM	0.25 µg/mL (≈ 0.995 µM)	0.016 µg/mL (≈ 0.0637 µM)	0.062 µg/mL (≈ 0.247 µM)	0.062 µg/mL (≈ 0.247 µM)												
CN[C@H](CC(C)C)C(=O)N[C@H]1C(=O)N[C@@H](CC(N)=O)C(=O)N[C@H]2C(=O)N[C@H]3C(=O)N[C@H](C(=O)N[C@H](C(=O)O)c4cc(O)cc(O)c4-c4cc3ccc4O)[C@H](O)c3ccc(c(Cl)c3)Oc3cc2cc(c3O[C@@H]2O[C@H](CO)[C@@H](O)[C@H](O)[C@H]2O[C@H]2C[C@](C)(N)[C@H](O)[C@H](C)O2)Oc2ccc(cc2Cl)[C@H]1O [Vancomycin, reference compound]												0.5 µg/mL (≈ 0.345 µM)	1 µg/mL (≈ 0.69 µM)	8 µg/mL (≈ 5.52 µM)	1 µg/mL (≈ 0.69 µM)	4 µg/mL (≈ 2.76 µM)	1 µg/mL (≈ 0.69 µM)
